In PubChem BioAssay (NCI):
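Five concentrations, 48 hours, 96-well plates. The concentration for 50% growth inhibition is given as GI50. TGI: concentration producing complete growth inhibition.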

What was measured:
Test in all cases: NCI tumour cell line growth inhibition, 48 h
[1] = tested on: NCI-H226 lung
[2] = tested on: ACHN renal
[3] = tested on: TK-10 renal
[4] = tested on: SN12C renal
[5] = tested on: NCI-H23 lung
[6] = tested on: SF-268 CNS
[7] = tested on: SK-OV-3 ovarian
[8] = tested on: IGROV1 ovarian
[9] = tested on: UO-31 renal
[10] = tested on: UACC-62 melanoma
[11] = tested on: BT-549 breast
[12] = tested on: CCRF-CEM leukemia
[13] = tested on: SW-620 colon
[14] = tested on: MDA-MB-231 breast
[15] = tested on: SF-539 CNS
[16] = tested on: SNB-75 CNS
[17] = tested on: SK-MEL-2 melanoma
[18] = tested on: MCF7 breast
[19] = tested on: HT29 colon
[20] = tested on: COLO 205 colon
[21] = tested on: HOP-92 NSCLC
[22] = tested on: SR leukemia
[23] = tested on: DU-145 prostate
[24] = tested on: UACC-257 melanoma
[25] = tested on: SK-MEL-28 melanoma
[26] = tested on: PC-3 prostate
[27] = tested on: OVCAR-5 ovarian
[28] = tested on: RXF 393 renal
[29] = tested on: A498 renal
[30] = tested on: OVCAR-8 ovarian
[31] = tested on: RPMI-8226 leukemia
[32] = tested on: MOLT-4 leukemia
[33] = tested on: U251 CNS
[34] = tested on: OVCAR-3 ovarian
[35] = tested on: A549 NSCLC
[36] = tested on: HOP-62 NSCLC
[37] = tested on: HCT-116 colon
[38] = tested on: MALME-3M melanoma
[39] = tested on: HCT-15 colon
[40] = tested on: CAKI-1 renal
[41] = tested on: NCI-H522 lung
[42] = tested on: T-47D breast
[43] = tested on: SNB-19 CNS
[44] = tested on: HL-60(TB) leukemia
[45] = tested on: HCC-2998 colon
[46] = tested on: NCI-H460 lung
[47] = tested on: SK-MEL-5 melanoma
[48] = tested on: SF-295 CNS
[49] = tested on: NCI/ADR-RES ovarian
[50] = tested on: OVCAR-4 ovarian
[51] = tested on: M14 melanoma
[52] = tested on: K-562 leukemia
[53] = tested on: LOX IMVI melanoma
[54] = tested on: KM12 colon
[55] = tested on: HS 578T breast
[56] = tested on: 786-0 renal

## Cc1cc(Cc2cc(C)c(O)c(C)c2)cc(C)c1O
[1]
  GI50: 19.2 µM
  TGI: 77.1 µM
[2]
  GI50: 12.1 µM
  TGI: > 100 µM
[3]
  GI50: 11.2 µM
  TGI: 56.8 µM
[4]
  GI50: 5.12 µM
  TGI: > 100 µM
[5]
  GI50: 11.3 µM
  TGI: 74 µM
[6]
  GI50: 7.85 µM
  TGI: 86.2 µM
[7]
  GI50: 6.47 µM
  TGI: 52.4 µM
[8]
  GI50: 11.3 µM
  TGI: > 100 µM
[9]
  GI50: 7.65 µM
  TGI: 96.6 µM
[10]
  GI50: 5.41 µM
  TGI: 62.6 µM
[11]
  GI50: 3.78 µM
  TGI: 17.6 µM
[12]
  GI50: 4.14 µM
  TGI: > 100 µM
[13]
  GI50: 3.03 µM
  TGI: > 100 µM
[14]
  GI50: 6.85 µM
  TGI: 38.3 µM
[15]
  GI50: 3.25 µM
  TGI: 14.2 µM
[16]
  GI50: 2.59 µM
  TGI: 25.9 µM
[17]
  GI50: 3.65 µM
  TGI: 11 µM
[18]
  GI50: 3.83 µM
  TGI: 53.7 µM
[19]
  GI50: 8.87 µM
  TGI: 33.8 µM
[20]
  GI50: 32.9 µM
  TGI: > 100 µM
[21]
  GI50: 4.35 µM
  TGI: 29.4 µM
[22]
  GI50: 2.65 µM
  TGI: 20.2 µM
[23]
  GI50: 14.6 µM
  TGI: > 100 µM
[24]
  GI50: 6.94 µM
  TGI: 62.2 µM
[25]
  GI50: 11.4 µM
  TGI: 66.5 µM
[26]
  GI50: 14.8 µM
  TGI: > 100 µM
[27]
  GI50: 17.8 µM
  TGI: 61.9 µM
[28]
  GI50: 6.47 µM
  TGI: 36.4 µM
[29]
  GI50: 11.9 µM
  TGI: 35.5 µM
[30]
  GI50: 7.59 µM
  TGI: > 100 µM
[31]
  GI50: 3.89 µM
  TGI: 30.9 µM
[32]
  GI50: 3.82 µM
  TGI: 27.8 µM
[33]
  GI50: 3.68 µM
  TGI: 19.6 µM
[34]
  GI50: 3.43 µM
  TGI: 10.5 µM
[35]
  GI50: 4.32 µM
  TGI: 38.2 µM
[36]
  GI50: 7.01 µM
  TGI: 89.6 µM
[37]
  GI50: 4.12 µM
  TGI: 15.2 µM
[38]
  GI50: 9.12 µM
  TGI: 59.2 µM
[39]
  GI50: 3.49 µM
  TGI: > 100 µM
[40]
  GI50: 3.74 µM
  TGI: 21.6 µM
[41]
  GI50: 3.49 µM
  TGI: 15.4 µM
[42]
  GI50: 4.64 µM
  TGI: 72 µM
[43]
  GI50: 7.81 µM
  TGI: > 100 µM
[44]
  GI50: 2.89 µM
  TGI: 9.86 µM
[45]
  GI50: 16.3 µM
  TGI: 82.1 µM
[46]
  GI50: 3.33 µM
  TGI: 11.8 µM
[47]
  GI50: 4.53 µM
  TGI: 17.5 µM
[48]
  GI50: 3.92 µM
  TGI: 21.7 µM
[49]
  GI50: 3.95 µM
  TGI: 48.5 µM
[50]
  GI50: 29 µM
  TGI: > 100 µM
[51]
  GI50: 3 µM
  TGI: 13.2 µM
[52]
  GI50: 1.76 µM
  TGI: 18.8 µM
[53]
  GI50: 6.64 µM
  TGI: 33.3 µM
[54]
  GI50: 3.93 µM
  TGI: 15.7 µM
[55]
  GI50: 2.58 µM
  TGI: 12.5 µM
[56]
  GI50: 10.4 µM
  TGI: 40.4 µM
